Values of other authors as cited in US9884022B2, “Controlled release pharmaceutical compositions of tapentadol” (LUPIN LIMITED, priority 2010, dated 2018).

Conditions: background statement on immediate release compositions

CCC(c1cccc(O)c1)C(C)CN(C)C (stereo not shown) [tapentadol, 3-(3-dimethylamino-1-ethyl-2-methyl-propyl) phenol]
half life: 4 h
